Tests used:
[1] = Test of in vitro efficacy: in vitro sun protection factor (Diffey method) of O/W emulsions; settings: screening agent 5% in O/W support, mean of three SPF values
From the text: Test of In Vitro Efficacy:
The method for evaluating the protection factor used is the in vitro method described by B. L. Diffey et al. in J. Soc. Cosmet. Chem. 40-127-133 (1989), which consists in determining the monochromatic protection factors every 5 nm in a wavelength range from 290 to 400 nm, and in calculating therefrom the sun protection factor according to a given mathematical equation.
Two screening agents of triazine type were formulated in a support of O/W type, at 5% by weight, in the solvent according to the invention and in a comparative solvent (Finsolv TN), and three SPF values, the mean and the standard deviation of which are collated in the table below, were determined for each formulation: […]

[2] = Comparative study of the solubility of a triazine derivative in different solvents; assay type: physicochemical; settings: heated to 83° C., crystals observed after 24 hours and cooling to room temperature
Description: Comparative Study of the Solubility of a Triazine Derivative in Different Solvents The solubility of a triazine derivative (i.e., 2,4,6-tris(diisobutyl 4′-aminobenzalmalonate)-s-triazine) in different solvents was determined by means of the following test:
20 g of solvent are added, at room temperature, to 5 g of screening agent, the mixture thus obtained is brought to 83° C. using a water bath, the presence or absence of crystals is observed after 24 hours and cooling to room temperature.
The results obtained are collated in the table below (the chemical names are given in the CTFA nomenclature, 5th edition, 1993).

[3] = solvent 15% C12-C15 alkyl benzoate "Finsolv TN" (comparative)
[4] = solvent 15% n-butylphthalimide/isopropylphthalimide Pelemol BIP (invention)

| SMILES | Mean SPF (Standard Deviation) [1, 3] | Mean SPF (Standard Deviation) [1, 4] | SOLUBILITY OF THE TRIAZINE SCREENING AGENT ([2]; solvent: C8-C12 fatty acid triglycerides "Miglyol 812") [%] | SOLUBILITY OF THE TRIAZINE SCREENING AGENT ([2]; solvent: C12-C15 alkyl benzoate "Finsolv TN") [%] | SOLUBILITY OF THE TRIAZINE SCREENING AGENT ([2]; solvent: PPG-3 myristyl ether "Witconol APM") [%] | SOLUBILITY OF THE TRIAZINE SCREENING AGENT ([2]; solvent: n-butylphthalimide/isopropylphthalimide eutectic mixture Pelemol BIP (invention)) [%] |
| --- | --- | --- | --- | --- | --- | --- |
| CCCCC(CC)COc1ccc(-c2nc(-c3ccc(OC)cc3)nc(-c3ccc(OCC(CC)CCCC)cc3O)n2)c(O)c1 (centres unmarked) [Anisotriazine] | 8.5 | 11.4 |  |  |  |  |
| CC(C)COC(=O)C(=Cc1ccc(Nc2nc(Nc3ccc(C=C(C(=O)OCC(C)C)C(=O)OCC(C)C)cc3)nc(Nc3ccc(C=C(C(=O)OCC(C)C)C(=O)OCC(C)C)cc3)n2)cc1)C(=O)OCC(C)C [2,4,6-tris(diisobutyl 4′-aminobenzalmalonate)-s-triazine] | 4.1 | 8.0 | <10 | <10 | <10 | 40 |

Reference: patent US20040151677A1, “1,3,5-Triazine sunscreens solubilized in mixed phthalimide eutectics” (SOCIETE L'OREAL, S.A., priority 2002, published 2004)
